# Several values for one entry are separate records, joined by “and”; a condition that tells them apart may be missing. Identical values can stand only once.
# Assays:
# [1] = Pharmacokinetics in whole blood, Sprague-Dawley rats; conditions: for % Parent AUCAll: Sprague-Dawley rat, metabolite AUCall/Parent AUCall x 100; for Whole Blood Conc. of compound 1: Sprague-Dawley rats; for concentration at 0.167 h / concentration at 0.33 h: Sprague-Dawley, rat, in vivo, po, Whole Blood Conc. of compound 1, Sprague-Dawley rats
# Procedure: The whole blood samples (0.5 mL) were collected into syringes that were prefilled with 2.5 mL of ice-cold 0.1% formic acid in acetonitrile. The volume ratio of the whole blood to 0.1% formic acid in acetonitrile was 1/5 (v/v). Samples were frozen (-70°C) until analyzed by LC-MS/MS.
# Standard curves and quality control (QC) samples were prepared fresh on the day of analysis by serial dilution of the standard mixture in quenched whole blood (1 part of blood to 5 parts of 0.1% formic acid in acetonitrile) and centrifuged. […] The frozen study samples were thawed in an ice/water bath and centrifuged. Supernatant (50 μL) from standards, QC samples, and study samples was transferred to a 96-well plate and dried completely under nitrogen. The dried residues were reconstituted with 100 μL of 0.1% formic acid in water containing internal standard (5 ng/mL of ^15N/^13C3-RE-024-02) and analyzed by LC-MS/MS.
# LC-MS/MS analysis for blood pharmacokinetic samples: Samples were analyzed using an Agilent 1100 binary pump (Agilent Technologies, Santa Clara, CA, USA), connected to an AB Sciex API 6500 mass spectrometer (SCIEX, Framingham, MA, USA). An electrospray ionization source was used, scanning in the positive mode. […] The chromatography column was a Varian Metasil AQ 120–5 C18 column, 5 μm, 50 x 2.00 mm (Part No. A0530050X020) at ambient temperature, with a 0.5 mL/min flow rate and a 20 μL injection volume. Mobile phase (A) consisted of 0.1% formic acid in water; while mobile phase (B) consisted of 0.1% formic acid in acetonitrile:water (9:1, v/v).
# Quantitation of in vivo samples: Peak areas were integrated using Analyst software (AB Sciex, Concord, Ontario, Canada). […] Calibration standards (at a minimum 7 per curve) were fit by linear regression with (1/x^2) weighting. QC samples were used (triplicate) at 3 concentrations for all tandem mass spectrometry (MS/MS) runs.
# Pharmacokinetic calculations: PK analysis was performed using Phoenix WinNonlin®, Build 6.3.0.395 (Certara, Princeton, NJ, USA) using a non-compartmental model (PO dose = model 200 for extravascular dosing). […] Post-dose concentrations below the limit of quantitation (BLQ) were omitted from calculation.
# [2] = Pharmacokinetics in whole blood, CD-1 mice; conditions: for % Parent AUCAll: CD1 mouse, metabolite AUCall/Parent AUCall x 100; for Compound 1 Whole Blood Conc.: CD-1 mice, individual animals
structure (smiles),measurement,setting,value
COC(=O)CCNC(=O)[C@@H]1OP(=O)(N[C@@H](C)C(=O)OC)OCC1(C)C (some centres unmarked) [Compound 1],% Parent AUCAll,[1]; 300 mg/kg PO,39%
same,% Parent AUCAll,[1]; 700 mg/kg PO,22%
same,Whole Blood Conc. of compound 1,"[1]; single 100 mg/kg RE-024-02 PO, time 0.5, LLOQ 0.60 ng/mL",BQL
same,Whole Blood Conc. of compound 1,"[1]; single 100 mg/kg RE-024-02 PO, time 0.5, LLOQ 1.58 nM",BQL
same,Whole Blood Conc. of compound 1,"[1]; single 100 mg/kg RE-024-02 PO, time 1, LLOQ 0.60 ng/mL",BQL
same,Whole Blood Conc. of compound 1,"[1]; single 100 mg/kg RE-024-02 PO, time 1, LLOQ 1.58 nM",BQL
same,Whole Blood Conc. of compound 1,"[1]; single 100 mg/kg RE-024-02 PO, time 2, LLOQ 0.60 ng/mL",BQL
same,Whole Blood Conc. of compound 1,"[1]; single 100 mg/kg RE-024-02 PO, time 2, LLOQ 1.58 nM",BQL
same,Whole Blood Conc. of compound 1,"[1]; single 100 mg/kg RE-024-02 PO, time 4, LLOQ 0.60 ng/mL",BQL
same,Whole Blood Conc. of compound 1,"[1]; single 100 mg/kg RE-024-02 PO, time 4, LLOQ 1.58 nM",BQL
same,Whole Blood Conc. of compound 1,"[1]; single 100 mg/kg RE-024-02 PO, time 8, LLOQ 0.60 ng/mL",BQL
same,Whole Blood Conc. of compound 1,"[1]; single 100 mg/kg RE-024-02 PO, time 8, LLOQ 1.58 nM",BQL
same,Whole Blood Conc. of compound 1,"[1]; single 300 mg/kg RE-024-02 PO, time 0.33, LLOQ 0.60 ng/mL, 300 mg/kg",41.34 ng/mL and 21.6 ng/mL
same,Whole Blood Conc. of compound 1,"[1]; single 300 mg/kg RE-024-02 PO, time 0.33, LLOQ 1.58 nM, 300 mg/kg",108.7 nM and 56.79 nM
same,Whole Blood Conc. of compound 1,"[1]; single 300 mg/kg RE-024-02 PO, time 2, LLOQ 0.60 ng/mL",BQL
same,Whole Blood Conc. of compound 1,"[1]; single 300 mg/kg RE-024-02 PO, time 2, LLOQ 1.58 nM",BQL
same,Whole Blood Conc. of compound 1,"[1]; single 300 mg/kg RE-024-02 PO, time 4, LLOQ 0.60 ng/mL",BQL
same,Whole Blood Conc. of compound 1,"[1]; single 300 mg/kg RE-024-02 PO, time 4, LLOQ 1.58 nM",BQL
same,Whole Blood Conc. of compound 1,"[1]; single 300 mg/kg RE-024-02 PO, time 8, LLOQ 0.60 ng/mL",BQL
same,Whole Blood Conc. of compound 1,"[1]; single 300 mg/kg RE-024-02 PO, time 8, LLOQ 1.58 nM",BQL
same,Whole Blood Conc. of compound 1,"[1]; single 700 mg/kg RE-024-02 PO, time 8, LLOQ 0.60 ng/mL",BQL
same,Whole Blood Conc. of compound 1,"[1]; single 700 mg/kg RE-024-02 PO, time 8, LLOQ 1.58 nM",BQL
same,concentration at 0.167 h,"[1]; 100 mg/kg, single 100 mg/kg RE-024-02 PO, time 0.167, LLOQ 0.60 ng/mL",3.88 ng/mL
same,concentration at 0.167 h,"[1]; 100 mg/kg, single 100 mg/kg RE-024-02 PO, time 0.167, LLOQ 1.58 nM",10.2 nM
same,concentration at 0.33 h,"[1]; 100 mg/kg, single 100 mg/kg RE-024-02 PO, time 0.33, LLOQ 0.60 ng/mL",1.21 ng/mL
same,concentration at 0.33 h,"[1]; 100 mg/kg, single 100 mg/kg RE-024-02 PO, time 0.33, LLOQ 1.58 nM",3.18 nM
same,concentration at 0.33 h,"[1]; 300 mg/kg, single 300 mg/kg RE-024-02 PO, time 0.33, LLOQ 0.60 ng/mL",22.6 ng/mL
same,concentration at 0.33 h,"[1]; 300 mg/kg, single 300 mg/kg RE-024-02 PO, time 0.33, LLOQ 1.58 nM",59.3 nM
same,% Parent AUCAll,[2]; 100 mg/kg PO,129%
same,% Parent AUCAll,[2]; 300 mg/kg PO,307%
same,% Parent AUCAll,[2]; 700 mg/kg PO,257%
same,Compound 1 Whole Blood Conc.,"[2]; 100 mg/kg RE-024-02 by PO, 0.033 hr, LLOQ 0.6 ng/mL, 100 mg/kg",4.6 ng/mL and 4 ng/mL and 74.4 ng/mL and 3.2 ng/mL
same,Compound 1 Whole Blood Conc.,"[2]; 100 mg/kg RE-024-02 by PO, 0.033 hr, LLOQ 1.6 nM, 100 mg/kg",12.2 nM and 10.6 nM and 195.6 nM and 8.4 nM
same,Compound 1 Whole Blood Conc.,"[2]; 100 mg/kg RE-024-02 by PO, 0.083 hr, LLOQ 0.6 ng/mL, 100 mg/kg",BQL and 1 ng/mL
same,Compound 1 Whole Blood Conc.,"[2]; 100 mg/kg RE-024-02 by PO, 0.083 hr, LLOQ 1.6 nM, 100 mg/kg",BQL and 2.7 nM
same,Compound 1 Whole Blood Conc.,"[2]; 100 mg/kg RE-024-02 by PO, 0.167 hr, LLOQ 0.6 ng/mL, 100 mg/kg",4.3 ng/mL and BQL and 10.8 ng/mL
same,Compound 1 Whole Blood Conc.,"[2]; 100 mg/kg RE-024-02 by PO, 0.167 hr, LLOQ 1.6 nM, 100 mg/kg",11.4 nM and BQL and 28.4 nM
same,Compound 1 Whole Blood Conc.,"[2]; 100 mg/kg RE-024-02 by PO, 0.333 hr, LLOQ 0.6 ng/mL, 100 mg/kg",BQL
same,Compound 1 Whole Blood Conc.,"[2]; 100 mg/kg RE-024-02 by PO, 0.333 hr, LLOQ 1.6 nM, 100 mg/kg",BQL
same,Compound 1 Whole Blood Conc.,"[2]; 100 mg/kg RE-024-02 by PO, 0.5 hr, LLOQ 0.6 ng/mL",BQL
same,Compound 1 Whole Blood Conc.,"[2]; 100 mg/kg RE-024-02 by PO, 0.5 hr, LLOQ 1.6 nM",BQL
same,Compound 1 Whole Blood Conc.,"[2]; 100 mg/kg RE-024-02 by PO, 1 hr, LLOQ 0.6 ng/mL",BQL
same,Compound 1 Whole Blood Conc.,"[2]; 100 mg/kg RE-024-02 by PO, 1 hr, LLOQ 1.6 nM",BQL
same,Compound 1 Whole Blood Conc.,"[2]; 100 mg/kg RE-024-02 by PO, 2 hr, LLOQ 0.6 ng/mL",BQL
same,Compound 1 Whole Blood Conc.,"[2]; 100 mg/kg RE-024-02 by PO, 2 hr, LLOQ 1.6 nM",BQL
same,Compound 1 Whole Blood Conc.,"[2]; 100 mg/kg RE-024-02 by PO, 4 hr, LLOQ 0.6 ng/mL",BQL
same,Compound 1 Whole Blood Conc.,"[2]; 100 mg/kg RE-024-02 by PO, 4 hr, LLOQ 1.6 nM",BQL
same,Compound 1 Whole Blood Conc.,"[2]; 100 mg/kg RE-024-02 by PO, 8 hr, LLOQ 0.6 ng/mL",BQL
same,Compound 1 Whole Blood Conc.,"[2]; 100 mg/kg RE-024-02 by PO, 8 hr, LLOQ 1.6 nM",BQL
same,Compound 1 Whole Blood Conc.,"[2]; 300 mg/kg RE-024-02 by PO, 0.033 hr, LLOQ 0.6 ng/mL, 300 mg/kg",8.7 ng/mL and 70.8 ng/mL and 52.7 ng/mL and 7.2 ng/mL
same,Compound 1 Whole Blood Conc.,"[2]; 300 mg/kg RE-024-02 by PO, 0.033 hr, LLOQ 1.6 nM, 300 mg/kg",22.9 nM and 186.2 nM and 138.7 nM and 18.9 nM
same,Compound 1 Whole Blood Conc.,"[2]; 300 mg/kg RE-024-02 by PO, 0.083 hr, LLOQ 0.6 ng/mL, 300 mg/kg",1.6 ng/mL and BQL and 16.9 ng/mL
same,Compound 1 Whole Blood Conc.,"[2]; 300 mg/kg RE-024-02 by PO, 0.083 hr, LLOQ 1.6 nM, 300 mg/kg",4.2 nM and BQL and 44.3 nM
